Laboratory results published in patent US12465603B2, “Phthalazinone based modulators for the treatment of disease” (Soley Therapeutics, Inc., priority 2022, dated 2025).

What was measured:
[1] = system: A2058 (ATCC, CRL-11147) cells; assay: Cell viability assay (Cell Titre Glo, 72 hours) in A2058 cells; type: cell-based; settings: Homo sapiens
Method: (§1) Example 31: Cell Viability Assays
(§2) Phthalazinone based modulators as described herein were dispensed into 384 well CulturPlates™ (PerkinElmer) using Echo 555 acoustic dispensing in 10-point dose response curves at a final top concentration of 30 μM following a 1 in 3 dilution series. A2058 (ATCC, CRL-11147) or PA1 (ECACC, 90013101) cells were added directly to a compound at a density of 5000 cells per well in a final volume of 50 μL and incubated for 72 hours at 37° C., 5% CO2. Viability was assessed using Cell Titre Glo® (Promega) according to the manufacturer's instructions (25 μL per well) and IC50 curves were generated for each inhibitor using IDBS ActivityBase data analysis software.

[2] = system: PA1 (ECACC, 90013101) cells; assay: Cell viability assay (Cell Titre Glo, 72 hours) in PA1 cells; type: cell-based; settings: Homo sapiens, PA-1
Method: as §1, §2

Structure (SMILES)	IC50 [1] [µM]	IC50 [2] [µM]
COc1c(F)cncc1N1CCN(C(=O)c2nn(C)c(=O)c3ccc(F)cc23)CC1 [Compound 233]	1 to 10	≤ 1
COc1ccccc1N1CCN(C(=O)c2nn(C)c(=O)c3ccncc23)CC1 [Compound 175]	1 to 10	≤ 1
Cn1nc(C(=O)N2CCN(c3cc(F)cc(Cl)c3)CC2)c2cnccc2c1=O [Compound 222]	≤ 1	≤ 1
Cn1nc(C(=O)N2CCN(c3ccc4nccn4c3)CC2)c2ccccc2c1=O [Compound 202]	> 20	> 20
COc1ncc(Cl)cc1N1CCN(C(=O)c2nn(C)c(=O)c3ccccc23)CC1 [Compound 23]	≤ 1	≤ 1
COc1ccc(C#N)cc1N1CCN(C(=O)c2nn(C)c(=O)c3ccccc23)CC1 [Compound 70]	≤ 1	≤ 1
Cn1nc(C(=O)N2CCN(c3cc(C#N)cc(C#N)c3)CC2)c2ccccc2c1=O [Compound 230, 5-(4-(3-methyl-4-oxo-3,4-dihydrophthalazine-1-carbonyl)piperazin-1-yl)isophthalonitrile]	1 to 10	≤ 1
CCn1nc(C(=O)N2CCN(c3cc(F)ccc3OC)CC2)c2ccccc2c1=O [Compound 121]	≤ 1	≤ 1
COc1ccccc1C1=CCN(C(=O)c2nn(C)c(=O)c3ccccc23)CC1 [Compound 247, 4-(4-(2-methoxyphenyl)-1,2,3,6-tetrahydropyridine-1-carbonyl)-2-methylphthalazin-1(2H)-one]	≤ 1	≤ 1
COc1ccccc1N1CCN(C(=O)c2nn(C)c(=O)c3ncccc23)CC1 [Compound 183]	> 20	10 to 20
CCn1nc(C(=O)N2CCN(c3cccc(C#N)c3)CC2)c2ccccc2c1=O [Compound 207]	≤ 1	≤ 1
CCn1nc(C(=O)N2CCN(c3nccnc3OC)CC2)c2ccccc2c1=O [Compound 99]	1 to 10	1 to 10
CCn1nc(C(=O)N2CCN(c3cc(F)cc(C#N)c3)CC2)c2cc(F)ccc2c1=O [Compound 239]	≤ 1	≤ 1
Cc1ccc(N2CCN(C(=O)c3nn(C)c(=O)c4ccccc34)CC2)cc1 [Compound 10, 2-methyl-4-[4-(p-tolyl)piperazine-1-carbonyl]phthalazin-1-one]	> 20	> 20
Cn1nc(C(=O)N2CCN(c3cncc(C(F)F)c3)CC2)c2ccccc2c1=O [Compound 63]	> 20	> 20
CCn1nc(C(=O)N2CCN(c3ccnc4c3OCC4)CC2)c2ccccc2c1=O [Compound 187]	≤ 1	≤ 1
COc1ccncc1N1CCN(C(=O)c2nn(C)c(=O)c3ccc(Cl)cc23)CC1 [Compound 246, 6-chloro-4-(4-(4-methoxypyridin-3-yl)piperazine-1-carbonyl)-2-methylphthalazin-1(2H)-one]	1 to 10	≤ 1
COc1cc(C)cc(N2CCN(C(=O)c3nn(C)c(=O)c4ccncc34)CC2)c1 [Compound 217]	≤ 1	≤ 1
CCn1nc(C(=O)N2CCN(c3cnccc3OC)CC2)c2ccccc2c1=O [Compound 118]	≤ 1	≤ 1
CCn1nc(C(=O)N2CCN(c3ccc(F)cc3C3CC3)CC2)c2ccccc2c1=O [Compound 119]	≤ 1	≤ 1

Structure (SMILES)	IC50 [1] [µM]	IC50 [2] [µM]
CCn1nc(C(=O)N2CCN(c3cccc(OC)n3)CC2)c2ccccc2c1=O [Compound 84]	≤ 1	≤ 1
Cn1nc(C(=O)N2CCN(c3cc(Cl)cc(C#N)c3)CC2)c2ccccc2c1=O [Compound 225]	≤ 1	≤ 1
Cn1nc(C(=O)N2CCN(c3cccc(Cl)c3)CC2)c2ccccc2c1=O [Compound 47]	≤ 1	≤ 1
Cn1nc(C(=O)N2CCN(c3ncccc3C3CC3)CC2)c2ccccc2c1=O [Compound 17]	≤ 1	≤ 1
CCn1nc(C(=O)N2CCN(c3ccccc3OC(C)C)CC2)c2ccccc2c1=O [Compound 128]	1 to 10	≤ 1
Cn1nc(C(=O)N2CCN(c3ccnc4cnn(C)c34)CC2)c2ccccc2c1=O [Compound 193]	> 20	> 20
CCOc1ccc(F)cc1N1CCN(C(=O)c2nn(C)c(=O)c3ccccc23)CC1 [Compound 48]	≤ 1	≤ 1
CC(C)Oc1cc(F)ccc1N1CCN(C(=O)c2nn(C)c(=O)c3ccccc23)CC1 [Compound 59]	1 to 10	1 to 10
Cc1cncc(N2CCN(C(=O)c3nn(C)c(=O)c4ccc(Cl)cc34)CC2)c1 [Compound 245, 6-chloro-2-methyl-4-(4-(5-methylpyridin-3-yl)piperazine-1-carbonyl)phthalazin-1(2H)-one]	> 20	10 to 20
CCn1nc(C(=O)N2CCN(c3cc(C#N)ccc3C3CC3)CC2)c2cnccc2c1=O [Compound 242]	≤ 1	≤ 1
Cn1nc(C(=O)N2CCN(c3ccccc3)CC2)c2cnccc2c1=O [Compound 170, 2-methyl-4-(4-phenylpiperazine-1-carbonyl)pyrido[3,4-d]pyridazin-1-one]	> 20	> 20
Cn1nc(C(=O)N2CCN(c3cc(C#N)ccc3C(F)F)CC2)c2ccccc2c1=O [Compound 200]	1 to 10	1 to 10
COc1ccccc1N1CCN(C(=O)c2nn(C)c(=O)c3cnccc23)CC1 [Compound 179]	1 to 10	1 to 10
CCn1nc(C(=O)N2CCN(c3ccccc3C)CC2)c2ccccc2c1=O [Compound 102]	≤ 1	≤ 1
CCn1nc(C(=O)N2CCN(c3ccccc3OC)CC2)c2ccccc2c1=O [Compound 101]	≤ 1	≤ 1
Cn1nc(C(=O)N2CCN(c3cccc(S(C)(=O)=O)c3)CC2)c2ccccc2c1=O [Compound 69]	1 to 10	1 to 10
CCn1nc(C(=O)N2CCN(c3cnccc3OC)CC2)c2cnccc2c1=O [Compound 243]	1 to 10	≤ 1
COc1cccc(N2CCN(C(=O)c3nn(C)c(=O)c4ccncc34)CC2)c1 [Compound 173, 4-(4-(3-methoxyphenyl)piperazine-1-carbonyl)-2-methylpyrido[3,4-d]pyridazin-1(2H)-one]	1 to 10	≤ 1
Cn1nc(C(=O)N2CCN(c3cnccc3C3CC3)CC2)c2cc(F)ccc2c1=O [Compound 232, 4-(4-(4-cyclopropylpyridin-3-yl)piperazine-1-carbonyl)-6-fluoro-2-methylphthalazin-1(2H)-one]	≤ 1	≤ 1
Cc1cncc(N2CCN(C(=O)c3nn(C)c(=O)c4ccccc34)CC2)c1 [Compound 73]	1 to 10	1 to 10

Structure (SMILES)	IC50 [1] [µM]	IC50 [2] [µM]
COc1nccnc1N1CCN(C(=O)c2nn(C)c(=O)c3ccccc23)CC1 [Compound 16]	10 to 20	1 to 10
CCn1nc(C(=O)N2CCN(c3ccc(OCCOC)cc3Cl)CC2)c2ccccc2c1=O [Compound 127]	> 20	> 20
CCc1cncc(N2CCN(C(=O)c3nn(C)c(=O)c4ccc(F)cc34)CC2)c1 [Compound 210]	1 to 10	≤ 1
Cn1cc(C(=O)N2CCN(c3ccccc3)CC2)c2ccccc2c1=O [Compound 1, 2-methyl-4-(4-phenylpiperazine-1-carbonyl)isoquinolin-1-one]	1 to 10	1 to 10
Cn1nc(C(=O)N2CCN(c3ccccc3F)CC2)c2ccccc2c1=O [Compound 30]	1 to 10	1 to 10
Cn1nc(C(=O)N2CCN(c3ccc4ccnn4c3)CC2)c2ccccc2c1=O [Compound 203]	> 20	> 20
Cn1nc(C(=O)N2CCN(c3cncc(C4CC4)c3)CC2)c2cc(F)ccc2c1=O [Compound 159]	≤ 1	≤ 1
Cn1nc(C(=O)N2CCN(c3cccc(C#N)c3)CC2)c2cnccc2c1=O [Compound 219]	1 to 10	1 to 10
O=C(c1nn(C2COC2)c(=O)c2ccccc12)N1CCN(c2ccccc2)CC1 [Compound 8]	> 20	> 20
Cn1nc(C(=O)N2CCN(c3cc(Cl)cc(C#N)c3)CC2)c2cnccc2c1=O [Compound 223]	1 to 10	≤ 1
CCn1nc(C(=O)N2CCN(c3cc(OC)cnn3)CC2)c2ccccc2c1=O [Compound 112]	> 20	> 20
CCn1nc(C(=O)N2CCN(c3cc(OC)ncc3F)CC2)c2ccccc2c1=O [Compound 152]	> 20	> 20
CCn1nc(C(=O)N2CCN(c3cc(Cl)cc(C#N)c3)CC2)c2cnccc2c1=O [Compound 244]	≤ 1	≤ 1
CCn1nc(C(=O)N2CCN(c3ccccc3Cl)CC2)c2ccccc2c1=O [Compound 105]	≤ 1	≤ 1
CCn1nc(C(=O)N2CCN(c3cccc4oc(=O)[nH]c34)CC2)c2ccccc2c1=O [Compound 97]	> 20	10 to 20
Cn1nc(C(=O)N2CCN(c3cccc(C#N)n3)CC2)c2ccccc2c1=O [Compound 228]	10 to 20	1 to 10
CCn1nc(C(=O)N2CCN(c3cncc(C)c3)CC2)c2cc(F)ccc2c1=O [Compound 238]	≤ 1	≤ 1
CCn1nc(C(=O)N2CCN(c3ncc(F)cc3OC)CC2)c2ccccc2c1=O [Compound 114]	1 to 10	≤ 1
COc1cccnc1N1CCN(C(=O)c2nn(C)c(=O)c3ccccc23)CC1 [Compound 14]	1 to 10	≤ 1
